This is an account of results in article PMC12894115, “Discovery and Functional Characterization of SnFDHal, an Efficient Tryptophan 5-Halogenase from Streptomyces noursei” (Applied Biochemistry and Biotechnology, 2025).

The subject of this experiment is T1, SnFDHal.
T1 construct: full-length 1,551 bp gene (about 516 residues) cloned from genomic DNA, pET28a NdeI/XhoI, His6-tagged, E. coli BL21(DE3), Ni-NTA; residues F49, K75, I78, H92, F94, Q187, E359, S460
Kind of experiment: HPLC chlorination assay, Michaelis-Menten fit. The format is biochemical, Streptomyces noursei. The conditions noted are these: NADH, FAD, E. coli Fre reductase (FADH2 regeneration), NaCl; 100 mM phosphate pH 6.0, 35 °C, 30 min. An excerpt:
HPLC chlorination assay, Michaelis-Menten fit on SnFDHal

For orientation: Km means the concentration of substrate that gives half-maximal velocity.

For the molecule `N[C@@H](Cc1c[nH]c2cc(Cl)ccc12)C(=O)O` [6-Cl-Trp, 6-chlorotryptophan], the Km came to 945 µM.

Turning to `N[C@@H](Cc1c[nH]c2c(Cl)cccc12)C(=O)O` [7-Cl-Trp, 7-chlorotryptophan], the Km was 172 µM.

For the molecule `N[C@@H](Cc1c[nH]c2ccccc12)C(=O)O` [L-Trp, L-tryptophan], the Km came out at 622 µM.
